Reference: patent US20150231236A1, “METHODS FOR TREATING PATIENTS WITH HYPERCHOLESTEROLEMIA THAT IS NOT ADEQUATELY CONTROLLED BY MODERATE-DOSE STATIN THERAPY” (Regeneron Pharmaceuticals, Inc., priority 2014, published 2015)

What was measured:
[1] = tested on: patients with hypercholesterolemia at high CV risk not adequately controlled with atorvastatin (20 mg or 40 mg); test: Example 2: randomized, double-blind trial, lipid efficacy of mAb316P add-on to atorvastatin vs EZE add-on, atorvastatin dose doubling or switch to rosuvastatin; assay type: in vivo, human; conditions: for reduced LDL-C levels by: week 24, add-on mAb316P
Protocol: The present study was a randomized, double-blind, active-comparator, parallel-group study in patients at high CV risk with non-FH or heFH who are not adequately controlled with atorvastatin (20 mg or 40 mg) with or without other lipid-modifying therapy (LMT) (excluding EZE). The study design is illustrated in FIG. 1. Patients who entered the study were taking either atorvastatin 20 mg or atorvastatin 40 mg. The former patients were randomized to 1 of 3 treatment arms (arms 1 to 3); the latter patients were randomized to 1 of 4 treatment arms (arms 4 to 7). The treatment arms are as follows:
(1) mAb316P+atorvastatin 20 mg+placebo-EZE; (2) Placebo-mAb316P+atorvastatin 40 mg+placebo-EZE; and (3) Placebo-mAb316P+atorvastatin 20 mg+EZE 10 mg.
(4) mAb316P+atorvastatin 40 mg+placebo-EZE; (5) Placebo-mAb316P+atorvastatin 80 mg+placebo-EZE; (6). Placebo-mAb316P+rosuvastatin 40 mg+placebo-EZE; and (7) Placebo-mAb316P+atorvastatin 40 mg+EZE 10 mg.
(B) a double-blind treatment period of 24 weeks. Each patient received a SC injection Q2W (mAb316P or placebo-mAb316P) and was administered (or instructed to take) 2 oral blinded medications daily (a statin [atorvastatin or rosuvastatin] and EZE or placebo-EZE). The first injection of mAb316P or placebo-mAb316P was administered at the clinical site on day 1, after study assessments were completed, and as soon as possible after the patient was randomized into the study. The patient/caregiver administered subsequent injections outside of the clinic according to the dosing schedule. On days where the clinic study visit coincided with dosing, the dose of study drugs (injectable and oral) were administered after all study assessments had been performed and all laboratory samples collected. The last dose of mAb316P or placebo-mAb316P was administered at week 22. The last dose of daily oral study drugs was administered at week 24. At week 12, based on their baseline CV risk, certain patients randomized to mAb316P in a blinded manner, had their dose increased as follows:
Each patient received a subcutaneous (SC) injection once every two weeks (Q2W) (mAb316P or placebo-mAb316P) and took 2 oral blinded medications daily (a statin [atorvastatin or rosuvastatin] and EZE or placebo-EZE).
The injectable study treatment was a single SC injection of 1 mL for a 75 mg or 150 mg dose of mAb316P or placebo-mAb316P provided in an auto-injector, administered in the abdomen, thigh, or outer area of the upper arm. The first injection of study drug was administered at the clinical site, as soon as possible after the patient was randomized into the study. The patient was monitored at the clinical site for at least 30 minutes following the first injection. The patient/caregiver administered subsequent injections outside of the clinic, according to the dosing schedule. On days where the clinic study visit coincided with dosing, the dose of study drug was administered after all study assessments have been performed and all laboratory samples collected.
The dose of mAb316P was increased, in a blinded manner, from 75 mg to 150 mg SC Q2W, starting at week 12, based on baseline CV risk in the following circumstances:
(§1) The primary efficacy endpoint was the percent change in calculated LDL-C from baseline to week 24, which is defined as: 100× (calculated LDL-C value at week 24−calculated LDL-C value at baseline)/calculated LDL-C value at baseline. The baseline calculated LDL-C value was the last LDL-C level obtained before the first double-blind study drug injection. The calculated LDL-C at week 24 will be the LDL-C level obtained within the week 24 analysis window and during the main efficacy period. The main efficacy period was defined as the time from the first double-blind study drug injection up to 21 days after the last double-blind study drug injection or up to the upper limit of the week 24 analysis window, whichever comes first.
Total-C, HDL-C, TG, ApoB, ApoA-1, and Lp (a) were directly measured by a central laboratory. […]

[2] = tested on: patients with hypercholesterolemia at high CV risk not adequately controlled with rosuvastatin (10 mg or 20 mg); test: Example 3: randomized, double-blind trial, lipid efficacy of mAb316P add-on to rosuvastatin vs EZE add-on or rosuvastatin dose doubling; assay type: in vivo, human; conditions: for Proportion of Patients Reaching LDL-C goal (%): week 24, LDL-C <70 mg/dL very high risk or <100 mg/dL high risk
Protocol: The present study was a randomized, double-blind, active-comparator, parallel-group study in patients at high CV risk with non-FH or heFH who are not adequately controlled with rosuvastatin (10 mg or 20 mg) with or without other lipid-modifying therapy (LMT) (excluding EZE). The study design is illustrated in FIG. 2. Patients who entered the study were taking either rosuvastatin 10 mg or rosuvastatin 20 mg. The former patients were randomized to 1 of 3 treatment arms (arms 1 to 3); the latter patients were randomized to 1 of 3 treatment arms (arms 4 to 6). The treatment arms are as follows:
(B) a double-blind treatment period of 24 weeks. […] The patient/caregiver administered subsequent injections outside of the clinic according to the dosing schedule. […] The last dose of daily oral study drugs was administered at week 24.
The first injection of study drug was administered at the clinical site, as soon as possible after the patient was randomized into the study. The patient was monitored at the clinical site for at least 30 minutes following the first injection. The patient/caregiver administered subsequent injections outside of the clinic, according to the dosing schedule.
as §1, with “24 was” for “24 will be”, “period is” for “period was”
Total-C, HDL-C, TG, ApoB, ApoA-1, and Lp(a) were directly measured by a central laboratory. LDL-C was calculated using the Friedewald formula. […] Non-HDL-C was calculated by subtracting HDL-C from the total-C. Ratio ApoB/ApoA-1 was calculated.
For clarification, the ITT analysis is defined for patients in the ITT population and includes all endpoint assessments in an analysis window, regardless of study treatment dosing status (i.e. includes post-treatment assessments). The on-treatment analysis is defined for patients in the mITT population and includes all endpoint assessments from the first double-blind study drug (capsule or injection, whichever comes first) up to 21 days after the last double-blind study drug injection or 3 days after the last capsule intake, whichever comes first (i.e. includes assessments in the efficacy treatment period).

[3] = tested on: patients with hypercholesterolemia at high CV risk not adequately controlled with atorvastatin (20 mg or 40 mg); test: Example 2: safety, treatment-emergent adverse events in pooled treatment groups; conditions: Safety Population, pooled treatment groups
Protocol: For the pooled data, three treatment groups are formed by combining treatment arms regardless of the atorvastatin doses as follows:
(2) EZE treatment group: pooling EZE+atorva 20 mg arm and EZE+atorva 40 mg arm;

[4] = tested on: patients with hypercholesterolemia at high CV risk not adequately controlled with rosuvastatin (10 mg or 20 mg); test: Example 3: safety, treatment-emergent adverse events in pooled treatment groups; conditions: Safety Population; pooled treatment groups

O=C1[C@H](CC[C@H](O)c2ccc(F)cc2)[C@@H](c2ccc(O)cc2)N1c1ccc(F)cc1 [EZE, ezetimibe, reference compound]
LDL-C reductions observed ([1]; across atorvastatin 20 mg and 40 mg regimens, ezetimibe add-on groups, atorvastatin dose increase groups): 20.5-22.6%
reduced LDL-C levels by ([1]; atorvastatin 20 mg regimen, add-on ezetimibe or doubling of atorvastatin dose): 20.5%
reduced LDL-C levels by ([1]; atorvastatin 40 mg regimen, add-on ezetimibe, doubling of atorvastatin dose or switch to rosuvastatin 40 mg): 22.6%
Proportion of Patients Reaching LDL-C goal (%) ([2]; Baseline Rosuvastatin 10 mg): 57.2%
Proportion of Patients Reaching LDL-C goal (%) ([2]; Baseline Rosuvastatin 20 mg): 52.2%
proportion of patients who reached LDL-C level of <70 mg/dL (1.81 mmol/L) at Week 24 ([2]; baseline rosuvastatin 10 mg regimen): 43.1%
proportion of patients who reached LDL-C level of <70 mg/dL (1.81 mmol/L) at Week 24 ([2]; baseline rosuvastatin 20 mg regimen): 43.6%
General Allergic TEAEs (SMQ Hypersensitivity) [3]: 5 (5.0%) patients (%)
SOC Injury, poisoning and procedural complications [3]: 12 (11.9%) patients (%)
SOC Musculoskeletal and connective tissue disorders [3]: 13 (12.9%) patients (%)
SOC Neoplasms benign, malignant and unspecified (incl cysts and polyps) [3]: 0 patients (%)
SOC Nervous system disorders [3]: 6 (5.9%) patients (%)
TEAEs [3]: 65 (64.4%) patients (%)
Treatment-emergent SAEs [3]: 7 (6.9%) patients (%)
Treatment-emergent injection site reactions (ISRs) [3]: 3 (3.0%) patients (%)
Treatment-emergent neurologic disorders [3]: 1 (1.0%) patients (%)
discontinued study treatment early due to a treatment emergent adverse event (TEAE) [3]: 4 (4.0%) patients (%)
patient deaths [3]: Two
Treatment-emergent cardiovascular events adjudicated positively ([3]; ischemia driven coronary revascularization procedure): 1 (1.0%) patients (%)
General Allergic TEAEs [4]: 2 (2.0%) patients (%)
SOC General disorders and administration site conditions [4]: 8 (7.9%) patients (%)
SOC Psychiatric disorders [4]: 4 (4.0%) patients (%)
SOC Respiratory, thoracic and mediastinal disorders [4]: 2 (2.0%) patients (%)
SOC Skin and subcutaneous tissue disorders [4]: 5 (5.0%) patients (%)
TEAEs [4]: 54 (53.5%) patients (%)
Treatment-emergent SAEs [4]: 8 (7.9%) patients (%)
Treatment-emergent cardiovascular events adjudicated positively [4]: 1 (1.0%) patients (%)
Treatment-emergent neurocognitive disorders [4]: 1 (1.0%) patients (%)
Treatment-emergent neurologic disorders [4]: 3 (3.0%) patients (%)
cough [4]: 0 patients (%)
discontinued study treatment early due to a treatment emergent adverse event [4]: 8 (7.9%) patients (%)
injection site reactions (ISRs) [4]: 0 patients (%)
